Test results reported in US20250186430A1, “THERAPY OF INTEROCEPTION DISORDERS WITH CGRP RECEPTOR ANTAGONISTS” (priority 2022, published 2025).

Legend:
[1] = background art; cited from earlier work
[2] = background art; cited from earlier work; remark: listed apart in the source
[3] = test system: rats subjected to laparotomy and gut manipulation; experiment: laparotomy and gut manipulation model of malaise due to abdominal surgery; type: in vivo; settings: gepant 10 mg/kg orally, daily, starting two days before surgery
Method: FIG. 3. Effects of rimegepant, ubrogepant, atogepant and zavegepant (10 mg/kg orally, daily, starting two days before surgery) on body weight loss and food consumption/anorexia in rats subjected to laparotomy and gut manipulation as an experimental model of malaise due to abdominal surgery. * p<0.05, ** p<0.01, *** p<0.001 vs Laparotomy, ANOVA and Tukeys post hoc test.

[4] = test system: rats treated with carbon tetrachloride; experiment: carbon tetrachloride model of malaise due to hepatopathy; type: in vivo; settings: gepant 10 mg/kg orally, daily, starting two days before carbon tetrachloride
Method: Further, we have tested the gepants in a model of hepatopathy, a condition that typically prompts asthenia, weight loss and anhedonia.
FIG. 4. Effects of rimegepant, ubrogepant, atogepant and zavegepant (10 mg/kg orally, daily, starting two days before carbon tetrachloride) on body weight loss and sweet water consumption in rats treated with carbon tetrachloride as a model of malaise due to hepatitis/hepatopathy. * p<0.05, ** p<0.01, *** p<0.001 vs Hepatitis, ANOVA and Tukeys post hoc test.

[5] = test system: rats injected with cerulein; experiment: cerulein model of pancreatitis; type: in vivo; settings: gepant 10 mg/kg orally, daily, starting two days before cerulein treatment
Method: FIG. 5. Effects of rimegepant, ubrogepant, atogepant and zavegepant (10 mg/kg orally, daily, starting two days before cerulein treatment) on body weight loss and spontaneous motility in rats injected with cerulein as an experimental model of pancreatitis. * p<0.05, ** p<0.01, *** p<0.001 vs Pancreatitis, ANOVA and Tukeys post hoc test.

[6] = test system: mice with chronic arthritis due to injection of Freund's adjuvant; experiment: chronic arthritis (Freund's adjuvant) model of malaise due to chronic pain; type: in vivo; settings: gepant 10 mg/kg orally, daily, starting two days before arthritis induction
Method: FIG. 2. Effects of rimegepant, ubrogepant, atogepant and zavegepant (10 mg/kg orally, daily, starting two days before arthritis induction) on food consumption/anorexia, weight loss and spontaneous motility in mice with chronic arthritis due to injection of Freund's adjuvant as an experimental model of malaise due to chronic pain. * p<0.05, ** p<0.01, *** p<0.001 vs Arthritis, ANOVA and Tukeys post hoc test.

[7] = test system: mice sensitized and re-challenged with ovalbumin; experiment: ovalbumin model of asthma or chronic obstructive pulmonary disease; type: in vivo; settings: gepant 10 mg/kg orally, daily, starting two days before antigen rechallenge
Method: FIG. 7. Effects of rimegepant, ubrogepant, atogepant and zavegepant (10 mg/kg orally, daily, starting two days before antigen rechallenge) on spontaneous motility, body weight loss and sweet water ingestion of mice sensitized and re-challenged with ovalbumin as a model of asthma or chronic obstructive pulmonary disease. * p<0.05, ** p<0.01, *** p<0.001 vs […], ANOVA and Tukeys post hoc test.

[8] = test system: rats injected intraperitoneally with lipopolysaccharides from Salmonella Typhimurium; experiment: lipopolysaccharide model of malaise due to sepsis/systemic immune activation; type: in vivo; settings: gepant 10 mg/kg orally, daily, starting two days before lipopolysaccharides injection
Method: FIG. 9. Effects of rimegepant, ubrogepant, atogepant and zavegepant (10 mg/kg orally, daily, starting two days before lipopolysaccharides injection) on body weight loss and food consumption/anorexia in rats injected intraperitoneally with lipopolysaccharides from Salmonella Typhimurium as a classic model of malaise due to sepsis/systemic immune activation. * p<0.05, ** p<0.01, vs Sepsis, ANOVA and Tukeys post hoc test.

[9] = test system: rats exposed to the chemotherapeutic drug cisplatin; experiment: cisplatin model of malaise due to antineoplastic chemotherapy; type: in vivo; settings: cisplatin 6 mg/kg intraperitoneal, gepant 10 mg/kg orally, daily, starting two days before cisplatin
Method: FIG. 1. Effect of rimegepant, ubrogepant, atogepant and zavegepant (10 mg/kg orally, daily, starting two days before cisplatin) on food consumption/anorexia, weight loss and weight body recovery in rats exposed to cisplatin (6 mg/kg, intraperitoneal), as an experimental model of malaise due to antineoplastic chemotherapy. * p<0.05, ** p<0.01, *** p<0.001, vs control, ANOVA and Tukeys post hoc test.

[10] = test system: rats injected with Yoshida hepatoma; experiment: Yoshida hepatoma model of malaise due to tumor cachexia; type: in vivo; settings: gepant 10 mg/kg orally, daily, starting two days before tumor injection
Method: As additional models of malaise due to interoceptive information, we have adopted those of tumor cachexia and sepsis.
FIG. 8. Effects of rimegepant, ubrogepant, atogepant and zavegepant (10 mg/kg orally, daily, starting two days before tumor injection) on body weight loss, muscle mass and food consumption/anorexia in rats injected with Yoshida hepatoma, as classic model of malaise due to tumor cachexia. * p<0.05, ** p<0.01, *** p<0.001. **** p<0.0001 vs Hepatoma, ANOVA and Tukeys post hoc test.

[11] = test system: rats treated with a diet containing 0.75% adenine; experiment: 0.75% adenine diet model of renal insufficiency; type: in vivo; settings: gepant 10 mg/kg orally, daily, starting two days before nephrotoxic diet
Method: Further, we have tested the gepants in rats treated with a diet containing 0.75% adenine as an experimental model of renal insufficiency.
FIG. 6. Effects of rimegepant, ubrogepant, atogepant and zavegepant (10 mg/kg orally, daily, starting two days before exposure to the nephrotoxic diet) on body weight loss and food consumption/anorexia in rats exposed to a diet containing 0.75% adenine as an experimental model of renal insufficiency. *p<0.05, ** p<0.01, *** p<0.001 vs Kidney Failure, ANOVA and Tukeys post hoc test.

Row | Structure (SMILES) | hepatotoxicity [1] | food aversion/anorexia [3] | weight loss [3] | sweet water consumption (index of motivational behavior and reduced anhedonia) [4] | weight loss [4] | reduction in spontaneous motility [5] | weight loss [5] | food aversion/anorexia [6] | spontaneous motility [6] | weight loss [6] | decrease of sweet water consumption [7] | spontaneous motility (parameter of malaise) [7] | weight loss [7] | decrease of food consumption/anorexia [8] | weight loss [8] | body weight loss [9] | food aversion/anorexia [9] | weight body recovery [9] | loss of muscle mass [10] | reduction of food consumption/anorexia [10] | further results
1 | O=C(N[C@@H]1CC[C@@H](c2cccc(F)c2F)CN(CC(F)(F)F)C1=O)N1CCC(n2c(=O)[nH]c3ncccc32)CC1 [telcagepant] | occurrence of hepatotoxicity | – | – | – | – | – | – | – | – | – | – | – | – | – | – | – | – | – | – | – | efficacy as anti-migraine drugs [2]: proved efficacious
2 | C[C@@H]1[C@H](c2c(F)ccc(F)c2F)C[C@H](NC(=O)c2cnc3c(c2)C[C@@]2(C3)C(=O)Nc3ncccc32)C(=O)N1CC(F)(F)F [atogepant] | non-hepatotoxic | in part | completely prevents | triggers an increase | reduces | prevents | prevents | reduces | increases | reduces | reduces | reduces | reduces | reduces | reduces | reduces | reduces | accelerates | counteracting | counteracting | weight loss [10]: reducing; decrease of food consumption/anorexia [11]: reduces; weight loss [11]: reduces
3 | NCCCC[C@H](NC(=O)[C@@H](Cc1cc(Br)c(O)c(Br)c1)NC(=O)N1CCC(N2Cc3ccccc3NC2=O)CC1)C(=O)N1CCN(c2ccncc2)CC1 [olcegepant] | occurrence of hepatotoxicity | – | – | – | – | – | – | – | – | – | – | – | – | – | – | – | – | – | – | – | efficacy as anti-migraine drugs [2]: proved efficacious
4 | N[C@@H]1c2cccnc2[C@H](OC(=O)N2CCC(n3c(=O)[nH]c4ncccc43)CC2)CC[C@H]1c1cccc(F)c1F [rimegepant] | non-hepatotoxic | in part | completely prevents | triggers an increase | reduces | prevents | prevents | reduces | increases | reduces | reduces | reduces | reduces | reduces | reduces | reduces | reduces | accelerates | counteracting | counteracting | weight loss [10]: reducing; decrease of food consumption/anorexia [11]: reduces; weight loss [11]: reduces
5 | Cc1cc(C[C@@H](NC(=O)N2CCC(c3cc4ccccc4[nH]c3=O)CC2)C(=O)N2CCN(C3CCN(C)CC3)CC2)cc2cn[nH]c12 [zavegepant] | non-hepatotoxic | in part | completely prevents | triggers an increase | reduces | prevents | prevents | reduces | increases | reduces | reduces | reduces | reduces | reduces | reduces | reduces | reduces | accelerates | counteracting | counteracting | weight loss [10]: reducing; decrease of food consumption/anorexia [11]: reduces; weight loss [11]: reduces
6 | C[C@@H]1[C@H](c2ccccc2)C[C@H](NC(=O)c2cnc3c(c2)C[C@@]2(C3)C(=O)Nc3ncccc32)C(=O)N1CC(F)(F)F [ubrogepant] | non-hepatotoxic | in part | completely prevents | triggers an increase | reduces | prevents | prevents | reduces | increases | reduces | reduces | reduces | reduces | reduces | reduces | reduces | reduces | accelerates | counteracting | counteracting | weight loss [10]: reducing; decrease of food consumption/anorexia [11]: reduces; weight loss [11]: reduces
